{"source": "the supplement of paper PMC11061612", "key": {"AGS (Gastric Carcinoma) [1]": {"test_system": "AGS (Gastric Carcinoma)", "experiment": "Bliss excess, mean over the matrix (fraction); higher = more synergy", "outline": "(§1)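 Bliss excess equals the observed combination effect minus the expected value EA + EB − EA·EB, where EA and EB are the effects of each agent alone. Combination Emax is the second-highest inhibition within the matrix. Inhibition was scaled from CellTiter-Glo 2.0 luminescence, with 0 set by vehicle wells and 1 by blank wells, after 72 hours of two-drug dosing of cells plated in 1536-well plates.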"}, "KELLY (Neuroblastoma)": {"test_system": "KELLY (Neuroblastoma)", "experiment": "Bliss excess, mean over the matrix (fraction); higher = more synergy", "outline": "as §1"}, "[2]": {"test_system": "MDA-MB-361 (Breast Carcinoma)", "experiment": "Bliss excess, mean over the matrix (fraction); higher = more synergy", "outline": "as §1"}, "[3]": {"test_system": "MFE-296 (Endometrial Carcinoma)", "experiment": "Bliss excess, mean over the matrix (fraction); higher = more synergy", "outline": "as §1"}, "[4]": {"test_system": "SK-ES-1 (Ewing's Sarcoma)", "experiment": "Bliss excess, mean over the matrix (fraction); higher = more synergy", "outline": "as §1"}, "[5]": {"test_system": "TE-9 (Esophageal Squamous Cell Carcinoma)", "experiment": "Bliss excess, mean over the matrix (fraction); higher = more synergy", "outline": "as §1"}, "AGS (Gastric Carcinoma) [6]": {"test_system": "AGS (Gastric Carcinoma)", "experiment": "combination Emax (second highest fraction inhibited in the dose matrix, 72 h); higher = more inhibition; extreme values may be limits of the assay", "outline": "as §1"}, "[7]": {"test_system": "B-CPAP (Thyroid Gland Carcinoma)", "experiment": "combination Emax (second highest fraction inhibited in the dose matrix, 72 h); higher = more inhibition; extreme values may be limits of the assay", "outline": "as §1"}, "[8]": {"test_system": "COLO-205 (Colorectal Carcinoma)", "experiment": "combination Emax (second highest fraction inhibited in the dose matrix, 72 h); higher = more inhibition; extreme values may be limits of the assay", "outline": "as §1"}, "[9]": {"test_system": "Calu-3 (Lung Adenocarcinoma)", "experiment": "combination Emax (second highest fraction inhibited in the dose matrix, 72 h); higher = more inhibition; extreme values may be limits of the assay", "outline": "as §1"}, "[10]": {"test_system": "EC-GI-10 (Esophageal Squamous Cell Carcinoma)", "experiment": "combination Emax (second highest fraction inhibited in the dose matrix, 72 h); higher = more inhibition; extreme values may be limits of the assay", "outline": "as §1"}, "[11]": {"test_system": "HuP-T4 (Pancreatic Carcinoma)", "experiment": "combination Emax (second highest fraction inhibited in the dose matrix, 72 h); higher = more inhibition; extreme values may be limits of the assay", "outline": "as §1"}, "[12]": {"test_system": "KP-1N (Pancreatic Carcinoma)", "experiment": "combination Emax (second highest fraction inhibited in the dose matrix, 72 h); higher = more inhibition; extreme values may be limits of the assay", "outline": "as §1"}, "[13]": {"test_system": "LS-180 (Colorectal Carcinoma)", "experiment": "combination Emax (second highest fraction inhibited in the dose matrix, 72 h); higher = more inhibition; extreme values may be limits of the assay", "outline": "as §1"}, "[14]": {"test_system": "LU-135 (Small Cell Lung Carcinoma)", "experiment": "combination Emax (second highest fraction inhibited in the dose matrix, 72 h); higher = more inhibition; extreme values may be limits of the assay", "outline": "as §1"}, "[15]": {"test_system": "MDA-MB-361 (Breast Carcinoma)", "experiment": "combination Emax (second highest fraction inhibited in the dose matrix, 72 h); higher = more inhibition; extreme values may be limits of the assay", "outline": "as §1"}, "[16]": {"test_system": "MFE-296 (Endometrial Carcinoma)", "experiment": "combination Emax (second highest fraction inhibited in the dose matrix, 72 h); higher = more inhibition; extreme values may be limits of the assay", "outline": "as §1"}, "NOS-1 (Osteosarcoma)": {"test_system": "NOS-1 (Osteosarcoma)", "experiment": "combination Emax (second highest fraction inhibited in the dose matrix, 72 h); higher = more inhibition; extreme values may be limits of the assay", "outline": "as §1"}, "[17]": {"test_system": "SNU-5 (Gastric Carcinoma)", "experiment": "combination Emax (second highest fraction inhibited in the dose matrix, 72 h); higher = more inhibition; extreme values may be limits of the assay", "outline": "as §1"}, "[18]": {"test_system": "TE-15 (Esophageal Squamous Cell Carcinoma)", "experiment": "combination Emax (second highest fraction inhibited in the dose matrix, 72 h); higher = more inhibition; extreme values may be limits of the assay", "outline": "as §1"}}}
{"smiles": "CC1(C)CCC(CN2CCN(c3ccc(C(=O)NS(=O)(=O)c4ccc(NCC5CCOCC5)c([N+](=O)[O-])c4)c(Oc4cnc5[nH]ccc5c4)c3)CC2)=C(c2ccc(Cl)cc2)C1", "note": "[Venetoclax] + Cn1cnc2c(F)c(Nc3ccc(Br)cc3Cl)c(C(=O)NOCCO)cc21 [Selumetinib] (first compound max 1 µM, 7x7, partner max 3 µM)", "values": [{"measurement": "Bliss excess", "setting": "AGS (Gastric Carcinoma) [1]", "result": -0.0792}, {"measurement": "Bliss excess", "setting": "KELLY (Neuroblastoma)", "result": 0.009}, {"measurement": "Bliss excess", "setting": "[2]", "result": -0.0299}, {"measurement": "Bliss excess", "setting": "[3]", "result": -0.0297}, {"measurement": "Bliss excess", "setting": "[4]", "result": 0.0234}, {"measurement": "Bliss excess", "setting": "[5]", "result": -0.027}, {"measurement": "combination Emax", "setting": "AGS (Gastric Carcinoma) [6]", "result": 0.656}, {"measurement": "combination Emax", "setting": "[7]", "result": 0.241}, {"measurement": "combination Emax", "setting": "[8]", "result": 0.718}, {"measurement": "combination Emax", "setting": "[9]", "result": 0.071}, {"measurement": "combination Emax", "setting": "[10]", "result": 0.313}, {"measurement": "combination Emax", "setting": "[11]", "result": 0.352}, {"measurement": "combination Emax", "setting": "[12]", "result": 0.191}, {"measurement": "combination Emax", "setting": "[13]", "result": 0.476}, {"measurement": "combination Emax", "setting": "[14]", "result": 0.332}, {"measurement": "combination Emax", "setting": "[15]", "result": 0.155}, {"measurement": "combination Emax", "setting": "[16]", "result": 0.0803}, {"measurement": "combination Emax", "setting": "NOS-1 (Osteosarcoma)", "result": 0.227}, {"measurement": "combination Emax", "setting": "[17]", "result": 0.453}, {"measurement": "combination Emax", "setting": "[18]", "result": 0.263}]}
